Experimental data from PMC6784069 (Toxins, 2019).
Where two headings read alike, the source gives them in different places. Residues, ends and D or L forms follow the SMILES beside them.

How the values were obtained:
[1] = target: T1, hNaV1.7 (Homo sapiens, UniProt Q15858); test: cell-based; format: cell-based; settings: for IC50: hNaV1.7 IC50
[2] = target: hCaV1.2 (Homo sapiens, UniProt Q13936); test: cell-based; settings: read-out: IC90–95 (compound concentration necessary to inhibit 90–95% of current)
[3] = target: T1, hNaV1.7; settings: cited from earlier work
[4] = test system: OD1-induced painful behavior of mice; settings: mouse, in vivo; cited from earlier work

T1 sequence (Q15858 whole entry): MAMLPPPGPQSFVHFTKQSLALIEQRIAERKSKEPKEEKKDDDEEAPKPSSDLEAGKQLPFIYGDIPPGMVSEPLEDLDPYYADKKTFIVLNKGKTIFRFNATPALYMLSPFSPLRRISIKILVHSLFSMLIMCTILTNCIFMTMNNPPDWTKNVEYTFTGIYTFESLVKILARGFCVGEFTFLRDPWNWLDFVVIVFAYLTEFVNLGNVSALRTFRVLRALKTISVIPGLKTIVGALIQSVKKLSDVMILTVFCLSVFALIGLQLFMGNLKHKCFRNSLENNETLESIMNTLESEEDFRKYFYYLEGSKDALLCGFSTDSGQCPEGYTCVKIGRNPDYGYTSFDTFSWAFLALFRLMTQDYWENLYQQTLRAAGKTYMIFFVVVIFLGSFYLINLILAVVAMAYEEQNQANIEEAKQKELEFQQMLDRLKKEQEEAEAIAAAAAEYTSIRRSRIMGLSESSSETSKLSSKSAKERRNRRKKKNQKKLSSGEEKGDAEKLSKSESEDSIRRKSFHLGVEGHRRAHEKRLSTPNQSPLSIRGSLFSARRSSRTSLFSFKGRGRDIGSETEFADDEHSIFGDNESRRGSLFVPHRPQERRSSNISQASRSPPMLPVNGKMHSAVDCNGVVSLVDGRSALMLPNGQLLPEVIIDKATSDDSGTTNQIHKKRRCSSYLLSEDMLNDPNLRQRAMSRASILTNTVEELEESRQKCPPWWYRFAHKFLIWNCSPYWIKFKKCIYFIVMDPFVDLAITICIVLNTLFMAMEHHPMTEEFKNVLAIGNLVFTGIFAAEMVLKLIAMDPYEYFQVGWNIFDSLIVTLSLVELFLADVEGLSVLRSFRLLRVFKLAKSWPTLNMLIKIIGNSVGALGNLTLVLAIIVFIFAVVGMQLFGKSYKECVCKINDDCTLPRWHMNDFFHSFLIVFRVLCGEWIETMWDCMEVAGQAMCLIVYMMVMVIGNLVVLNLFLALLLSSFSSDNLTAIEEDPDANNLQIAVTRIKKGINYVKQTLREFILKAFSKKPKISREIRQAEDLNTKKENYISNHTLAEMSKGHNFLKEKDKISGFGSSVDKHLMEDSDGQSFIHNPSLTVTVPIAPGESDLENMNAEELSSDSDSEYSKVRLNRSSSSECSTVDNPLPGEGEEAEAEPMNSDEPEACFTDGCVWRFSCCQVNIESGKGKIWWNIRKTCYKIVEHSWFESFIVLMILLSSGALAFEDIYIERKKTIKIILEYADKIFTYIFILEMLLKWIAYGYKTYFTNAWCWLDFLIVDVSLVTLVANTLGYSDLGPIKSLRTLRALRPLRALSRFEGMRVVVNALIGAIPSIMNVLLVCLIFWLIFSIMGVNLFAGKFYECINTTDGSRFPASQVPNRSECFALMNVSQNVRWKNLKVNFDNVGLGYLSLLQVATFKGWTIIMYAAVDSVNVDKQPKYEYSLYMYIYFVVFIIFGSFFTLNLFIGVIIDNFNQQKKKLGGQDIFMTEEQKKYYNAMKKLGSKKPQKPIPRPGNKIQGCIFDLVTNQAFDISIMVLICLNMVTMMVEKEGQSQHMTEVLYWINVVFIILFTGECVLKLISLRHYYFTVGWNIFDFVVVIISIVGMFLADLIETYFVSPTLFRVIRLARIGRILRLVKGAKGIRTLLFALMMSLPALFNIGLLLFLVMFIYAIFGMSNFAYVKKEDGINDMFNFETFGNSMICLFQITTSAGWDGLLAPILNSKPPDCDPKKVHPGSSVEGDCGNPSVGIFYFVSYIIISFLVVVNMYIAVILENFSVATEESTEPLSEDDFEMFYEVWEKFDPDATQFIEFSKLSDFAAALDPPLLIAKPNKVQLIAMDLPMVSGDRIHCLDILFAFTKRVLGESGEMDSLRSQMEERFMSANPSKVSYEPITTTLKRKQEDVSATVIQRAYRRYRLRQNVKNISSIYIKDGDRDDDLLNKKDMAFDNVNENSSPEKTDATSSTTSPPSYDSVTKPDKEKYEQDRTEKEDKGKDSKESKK

Molecule	modification of variant affinity for hNaV1.7 relative to wild-type [1]	IC50 ([1]; SD)	further results
CC(C)C[C@@H]1NC(=O)[C@@H](NC(=O)[C@@H]2CCC(=O)N2)CSSC[C@@H]2NC(=O)[C@@H]3CSSC[C@@H](C(=O)N[C@@H](CCCNC(=N)N)C(=O)N[C@@H](Cc4ccc(O)cc4)C(=O)N[C@@H](CCCCN)C(=O)N[C@@H](CC(C)C)C(=O)N[C@@H](Cc4ccccc4)C(=O)O)NC(=O)[C@H](Cc4c[nH]c5ccccc45)NC(=O)[C@@H]4CCCN4C(=O)[C@H](Cc4ccc(O)cc4)NC(=O)[C@H](CCCCN)NC(=O)[C@H](Cc4c[nH]c5ccccc45)NC(=O)[C@H](CCC(=O)O)NC(=O)[C@H](CSSC[C@H](NC(=O)[C@H](CO)NC(=O)[C@H](CC(=O)O)NC(=O)[C@H](Cc4c[nH]c5ccccc45)NC(=O)[C@H](CCC(N)=O)NC(=O)CNC1=O)C(=O)N[C@@H](CC(=O)O)C(=O)N1CCC[C@H]1C(=O)N[C@@H](CCCCN)C(=O)N[C@@H](C)C(=O)N[C@@H](CO)C(=O)N[C@@H](CCCCN)C(=O)N3)NC(=O)[C@H](C)NC(=O)[C@H](Cc1ccc(O)cc1)NC(=O)[C@H](CC(N)=O)NC(=O)[C@@H]1CCCN1C2=O [A1Z] (HELM PEPTIDE1{[Glp].C.L.G.Q.W.D.S.C.D.P.K.A.S.K.C.C.P.N.Y.A.C.E.W.K.Y.P.W.C.R.Y.K.L.F}$PEPTIDE1,PEPTIDE1,2:R3-17:R3|PEPTIDE1,PEPTIDE1,9:R3-22:R3|PEPTIDE1,PEPTIDE1,16:R3-29:R3$$$V2.0)	less than 3 fold	172 nM	–
[Cl][Cd][Cl] [Cadmium (chloride), reference compound]	–	–	IC90 [2]: 200000 nM
CC(C)C[C@@H]1NC(=O)[C@@H](NC(=O)[C@H](C)N)CSSC[C@@H]2NC(=O)[C@@H]3CSSC[C@@H](C(=O)N[C@@H](CCCNC(=N)N)C(=O)N[C@@H](Cc4ccc(O)cc4)C(=O)N[C@@H](CCCCN)C(=O)N[C@@H](CC(C)C)C(=O)N[C@@H](Cc4ccccc4)C(=O)O)NC(=O)[C@H](Cc4c[nH]c5ccccc45)NC(=O)[C@@H]4CCCN4C(=O)[C@H](Cc4ccc(O)cc4)NC(=O)[C@H](CCCCN)NC(=O)[C@H](Cc4c[nH]c5ccccc45)NC(=O)[C@H](CCC(=O)O)NC(=O)[C@H](CSSC[C@H](NC(=O)[C@H](CO)NC(=O)[C@H](CC(=O)O)NC(=O)[C@H](Cc4c[nH]c5ccccc45)NC(=O)[C@H](CCC(N)=O)NC(=O)CNC1=O)C(=O)N[C@@H](CC(=O)O)C(=O)N1CCC[C@H]1C(=O)N[C@@H](C)C(=O)N[C@@H](C)C(=O)N[C@@H](CO)C(=O)N[C@@H](CCCCN)C(=O)N3)NC(=O)[C@H](C)NC(=O)[C@H](Cc1ccc(O)cc1)NC(=O)[C@H](CC(N)=O)NC(=O)[C@@H]1CCCN1C2=O [K12A] (HELM PEPTIDE1{A.C.L.G.Q.W.D.S.C.D.P.A.A.S.K.C.C.P.N.Y.A.C.E.W.K.Y.P.W.C.R.Y.K.L.F}$PEPTIDE1,PEPTIDE1,2:R3-17:R3|PEPTIDE1,PEPTIDE1,9:R3-22:R3|PEPTIDE1,PEPTIDE1,16:R3-29:R3$$$V2.0)	less than 3 fold	252 nM	–
CC(C)C[C@@H]1NC(=O)[C@@H](NC(=O)[C@H](C)N)CSSC[C@@H]2NC(=O)[C@@H]3CSSC[C@@H](C(=O)N[C@@H](CCCNC(=N)N)C(=O)N[C@@H](Cc4ccc(O)cc4)C(=O)N[C@@H](CCCCN)C(=O)N[C@@H](CC(C)C)C(=O)N[C@@H](Cc4ccccc4)C(=O)O)NC(=O)[C@H](Cc4c[nH]c5ccccc45)NC(=O)[C@@H]4CCCN4C(=O)[C@H](Cc4ccc(O)cc4)NC(=O)[C@H](CCCCN)NC(=O)[C@H](Cc4c[nH]c5ccccc45)NC(=O)[C@H](CCC(=O)O)NC(=O)[C@H](CSSC[C@H](NC(=O)[C@H](CO)NC(=O)[C@H](CC(=O)O)NC(=O)[C@H](Cc4c[nH]c5ccccc45)NC(=O)[C@H](CCC(N)=O)NC(=O)CNC1=O)C(=O)N[C@@H](CC(=O)O)C(=O)N1CCC[C@H]1C(=O)N[C@@H](CCCCN)C(=O)N[C@@H](C)C(=O)N[C@@H](CO)C(=O)N[C@@H](C)C(=O)N3)NC(=O)[C@H](C)NC(=O)[C@H](Cc1ccc(O)cc1)NC(=O)[C@H](CC(N)=O)NC(=O)[C@@H]1CCCN1C2=O [K15A] (HELM PEPTIDE1{A.C.L.G.Q.W.D.S.C.D.P.K.A.S.A.C.C.P.N.Y.A.C.E.W.K.Y.P.W.C.R.Y.K.L.F}$PEPTIDE1,PEPTIDE1,2:R3-17:R3|PEPTIDE1,PEPTIDE1,9:R3-22:R3|PEPTIDE1,PEPTIDE1,16:R3-29:R3$$$V2.0)	less than 3 fold	706 nM	–
CC(C)C[C@@H]1NC(=O)[C@@H](NC(=O)[C@H](C)N)CSSC[C@@H]2NC(=O)[C@@H]3CSSC[C@@H](C(=O)N[C@@H](CCCNC(=N)N)C(=O)N[C@@H](Cc4ccc(O)cc4)C(=O)N[C@@H](CCCCN)C(=O)N[C@@H](CC(C)C)C(=O)N[C@@H](Cc4ccccc4)C(=O)O)NC(=O)[C@H](Cc4c[nH]c5ccccc45)NC(=O)[C@@H]4CCCN4C(=O)[C@H](Cc4ccc(O)cc4)NC(=O)[C@H](C)NC(=O)[C@H](Cc4c[nH]c5ccccc45)NC(=O)[C@H](CCC(=O)O)NC(=O)[C@H](CSSC[C@H](NC(=O)[C@H](CO)NC(=O)[C@H](CC(=O)O)NC(=O)[C@H](Cc4c[nH]c5ccccc45)NC(=O)[C@H](CCC(N)=O)NC(=O)CNC1=O)C(=O)N[C@@H](CC(=O)O)C(=O)N1CCC[C@H]1C(=O)N[C@@H](CCCCN)C(=O)N[C@@H](C)C(=O)N[C@@H](CO)C(=O)N[C@@H](CCCCN)C(=O)N3)NC(=O)[C@H](C)NC(=O)[C@H](Cc1ccc(O)cc1)NC(=O)[C@H](CC(N)=O)NC(=O)[C@@H]1CCCN1C2=O [K25A] (HELM PEPTIDE1{A.C.L.G.Q.W.D.S.C.D.P.K.A.S.K.C.C.P.N.Y.A.C.E.W.A.Y.P.W.C.R.Y.K.L.F}$PEPTIDE1,PEPTIDE1,2:R3-17:R3|PEPTIDE1,PEPTIDE1,9:R3-22:R3|PEPTIDE1,PEPTIDE1,16:R3-29:R3$$$V2.0)	–	–	IC50 [1]: > 10000 nM
COC(=O)C1=C(C)NC(C)=C(C(=O)OC)C1c1ccccc1[N+](=O)[O-] [Nifedipine, reference compound]	–	–	IC90 ([2]; CHO): 10000 nM
CC(C)C[C@@H]1NC(=O)[C@@H](NC(=O)[C@H](C)N)CSSC[C@@H]2NC(=O)[C@@H]3CSSC[C@@H](C(=O)N[C@@H](CCCNC(=N)N)C(=O)N[C@@H](Cc4ccc(O)cc4)C(=O)N[C@@H](CCCCN)C(=O)N[C@@H](CC(C)C)C(=O)N[C@@H](Cc4ccccc4)C(=O)O)NC(=O)[C@H](Cc4c[nH]c5ccccc45)NC(=O)[C@@H]4CCCN4C(=O)[C@H](Cc4ccc(O)cc4)NC(=O)[C@H](CCCCN)NC(=O)[C@H](Cc4c[nH]c5ccccc45)NC(=O)[C@H](CCC(=O)O)NC(=O)[C@H](CSSC[C@H](NC(=O)[C@H](C)NC(=O)[C@H](CC(=O)O)NC(=O)[C@H](Cc4c[nH]c5ccccc45)NC(=O)[C@H](CCC(N)=O)NC(=O)CNC1=O)C(=O)N[C@@H](CC(=O)O)C(=O)N1CCC[C@H]1C(=O)N[C@@H](CCCCN)C(=O)N[C@@H](C)C(=O)N[C@@H](CO)C(=O)N[C@@H](CCCCN)C(=O)N3)NC(=O)[C@H](C)NC(=O)[C@H](Cc1ccc(O)cc1)NC(=O)[C@H](CC(N)=O)NC(=O)[C@@H]1CCCN1C2=O [S8A] (HELM PEPTIDE1{A.C.L.G.Q.W.D.A.C.D.P.K.A.S.K.C.C.P.N.Y.A.C.E.W.K.Y.P.W.C.R.Y.K.L.F}$PEPTIDE1,PEPTIDE1,2:R3-17:R3|PEPTIDE1,PEPTIDE1,9:R3-22:R3|PEPTIDE1,PEPTIDE1,16:R3-29:R3$$$V2.0)	less than 3 fold	180 nM	–
CC(C)C[C@@H]1NC(=O)[C@@H](NC(=O)[C@H](C)N)CSSC[C@@H]2NC(=O)[C@@H]3CSSC[C@@H](C(=O)N[C@@H](CCCNC(=N)N)C(=O)N[C@@H](Cc4ccc(O)cc4)C(=O)N[C@@H](CCCCN)C(=O)N[C@@H](CC(C)C)C(=O)N[C@@H](Cc4ccccc4)C(=O)O)NC(=O)[C@H](Cc4c[nH]c5ccccc45)NC(=O)[C@@H]4CCCN4C(=O)[C@H](Cc4ccc(O)cc4)NC(=O)[C@H](CCCCN)NC(=O)[C@H](C)NC(=O)[C@H](CCC(=O)O)NC(=O)[C@H](CSSC[C@H](NC(=O)[C@H](CO)NC(=O)[C@H](CC(=O)O)NC(=O)[C@H](Cc4c[nH]c5ccccc45)NC(=O)[C@H](CCC(N)=O)NC(=O)CNC1=O)C(=O)N[C@@H](CC(=O)O)C(=O)N1CCC[C@H]1C(=O)N[C@@H](CCCCN)C(=O)N[C@@H](C)C(=O)N[C@@H](CO)C(=O)N[C@@H](CCCCN)C(=O)N3)NC(=O)[C@H](C)NC(=O)[C@H](Cc1ccc(O)cc1)NC(=O)[C@H](CC(N)=O)NC(=O)[C@@H]1CCCN1C2=O [W24A] (HELM PEPTIDE1{A.C.L.G.Q.W.D.S.C.D.P.K.A.S.K.C.C.P.N.Y.A.C.E.A.K.Y.P.W.C.R.Y.K.L.F}$PEPTIDE1,PEPTIDE1,2:R3-17:R3|PEPTIDE1,PEPTIDE1,9:R3-22:R3|PEPTIDE1,PEPTIDE1,16:R3-29:R3$$$V2.0)	–	–	IC50 [1]: > 10000 nM
CC(C)C[C@@H]1NC(=O)[C@@H](NC(=O)[C@H](C)N)CSSC[C@@H]2NC(=O)[C@@H]3CSSC[C@@H](C(=O)N[C@@H](CCCNC(=N)N)C(=O)N[C@@H](Cc4ccc(O)cc4)C(=O)N[C@@H](CCCCN)C(=O)N[C@@H](CC(C)C)C(=O)N[C@@H](Cc4ccccc4)C(=O)O)NC(=O)[C@H](Cc4c[nH]c5ccccc45)NC(=O)[C@@H]4CCCN4C(=O)[C@H](C)NC(=O)[C@H](CCCCN)NC(=O)[C@H](Cc4c[nH]c5ccccc45)NC(=O)[C@H](CCC(=O)O)NC(=O)[C@H](CSSC[C@H](NC(=O)[C@H](CO)NC(=O)[C@H](CC(=O)O)NC(=O)[C@H](Cc4c[nH]c5ccccc45)NC(=O)[C@H](CCC(N)=O)NC(=O)CNC1=O)C(=O)N[C@@H](CC(=O)O)C(=O)N1CCC[C@H]1C(=O)N[C@@H](CCCCN)C(=O)N[C@@H](C)C(=O)N[C@@H](CO)C(=O)N[C@@H](CCCCN)C(=O)N3)NC(=O)[C@H](C)NC(=O)[C@H](Cc1ccc(O)cc1)NC(=O)[C@H](CC(N)=O)NC(=O)[C@@H]1CCCN1C2=O [Y26A] (HELM PEPTIDE1{A.C.L.G.Q.W.D.S.C.D.P.K.A.S.K.C.C.P.N.Y.A.C.E.W.K.A.P.W.C.R.Y.K.L.F}$PEPTIDE1,PEPTIDE1,2:R3-17:R3|PEPTIDE1,PEPTIDE1,9:R3-22:R3|PEPTIDE1,PEPTIDE1,16:R3-29:R3$$$V2.0)	–	–	IC50 [1]: > 10000 nM
CcoTx1: spider toxin, NaV ligand (CLGWFKSCDPKNDKCCKNYTCSRRDRWCKYDL)	–	–	IC50 [3]: 2 to 130 nM; concentration efficient to diminish or completely reverse the OD1-induced manifestations of pain [4]: 1 µM
Pre1a: spider toxin, NaV ligand (CLGWFSRCSPKNDKCCPNYKCSSKDLWCKYKIW)	–	–	IC50 [3]: 114 nM
